What all share (format): in vivo
One experiment has as its system rice (Oryra sativa). Nature of the experiment: Test B flooded paddy test. To be noted: Oryza sativa, Flood, 250 g ai/ha; scale of 0 to 100 where 0 is no effect and 100 is complete control; read-out: Rice plant response rating. In a few lines:
(§1)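 Greenhouse paddy pots with 2-leaf stage plants received compound by direct addition to floodwater 3 cm deep, kept at that level. Scored visually at 13–15 d versus controls (0 no effect; 100 complete control).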

For experiment [1], the system named is ducksalad (Heteranthera limosa). Nature of the experiment: Test B flooded paddy test. To be noted: Heteranthera limosa, Flood, 250 g ai/ha; scale of 0 to 100 where 0 is no effect and 100 is complete control; read-out: Ducksalad plant response rating. In a few lines:
as §1

In experiment [2] the test system is barnyardgrass (Echinochloa crus-galli). The experiment in a line: Test B flooded paddy test. To be noted: Echinochloa crus-galli, Flood, 250 g ai/ha; scale of 0 to 100 where 0 is no effect and 100 is complete control; read-out: Barnyardgrass plant response rating. In a few lines:
as §1

Experiment [3] relates to sedge, umbrella (small-flower umbrella sedge, Cyperus difformis). The experiment in a line: Test B flooded paddy test. To be noted: Cyperus difformis, Flood, 250 g ai/ha; scale of 0 to 100 where 0 is no effect and 100 is complete control; read-out: Sedge, Umbrella plant response rating. In a few lines: as §1
The test system of experiment [4] is ryegrass, Italian (Italian ryegrass, Lolium multiflorum). The experiment in a line: Test A preemergence. To be noted: Lolium multiflorum, pre-emergence, 240 h, preemergence, read-out: Plant response rating, Ryegrass, Italian; for pest or weed control at 125 g/ha: 125 g ai/ha, visual rating after approx. 10 d, 0 to 100 scale where 0 is no effect and 100 is complete control; for pest or weed control at 500 g/ha: 500 g ai/ha, 0 to 100 scale, 0 = no effect, 100 = complete control. In a few lines: (§2)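 Seeded soil received test chemicals as a preemergence directed spray, and seedlings at one to two leaves, 2–10 cm tall, received them postemergence, in a non-phytotoxic, surfactant-containing solvent mixture. Pots were held in a greenhouse for approximately 10 d, then rated for injury from 0, no effect, to 100, complete control.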

The subject of another experiment is Kochia (Kochia scoparia). The experiment in a line: Test A preemergence. To be noted: Bassia scoparia, pre-emergence, 240 h, preemergence, read-out: Plant response rating, Kochia; for pest or weed control at 125 g/ha: 125 g ai/ha, visual rating after approx. 10 d, 0 to 100 scale where 0 is no effect and 100 is complete control; for pest or weed control at 500 g/ha: 500 g ai/ha, 0 to 100 scale, 0 = no effect, 100 = complete control. In a few lines: as §2

The test system of experiment [5] is pigweed (Amaranthus retroflexus). The experiment in a line: Test A preemergence. To be noted: Amaranthus retroflexus, pre-emergence, 240 h, preemergence, read-out: Plant response rating, Pigweed; for pest or weed control at 125 g/ha: 125 g ai/ha, visual rating after approx. 10 d, 0 to 100 scale where 0 is no effect and 100 is complete control; for pest or weed control at 500 g/ha: 500 g ai/ha, 0 to 100 scale, 0 = no effect, 100 = complete control.

The test system of experiment [6] is barnyardgrass (Echinochloa crus-galli). The experiment in a line: Test A preemergence. To be noted: Echinochloa crus-galli, pre-emergence, 240 h, preemergence, read-out: Plant response rating, Barnyardgrass; for pest or weed control at 125 g/ha: 125 g ai/ha, visual rating after approx. 10 d, 0 to 100 scale where 0 is no effect and 100 is complete control; for pest or weed control at 500 g/ha: 500 g ai/ha, 0 to 100 scale, 0 = no effect, 100 = complete control. In a few lines: as §2

Experiment [7] has as its system ragweed (common ragweed, Ambrosia elatior). Nature of the experiment: Test A preemergence. To be noted: Ambrosia artemisiifolia, pre-emergence, 240 h, preemergence, read-out: Plant response rating, Ragweed; for pest or weed control at 125 g/ha: 125 g ai/ha, visual rating after approx. 10 d, 0 to 100 scale where 0 is no effect and 100 is complete control; for pest or weed control at 500 g/ha: 500 g ai/ha, 0 to 100 scale, 0 = no effect, 100 = complete control. In a few lines: as §2

The test system of experiment [8] is giant foxtail (Setaria faberii). Nature of the experiment: Test A preemergence. To be noted: Setaria faberi, pre-emergence, 240 h, preemergence, read-out: Plant response rating, Foxtail, Giant; for pest or weed control at 125 g/ha: 125 g ai/ha, visual rating after approx. 10 d, 0 to 100 scale where 0 is no effect and 100 is complete control; for pest or weed control at 500 g/ha: 500 g ai/ha, 0 to 100 scale, 0 = no effect, 100 = complete control. In a few lines: as §2

Experiment [9] relates to ryegrass, Italian (Italian ryegrass, Lolium multiflorum). The experiment in a line: Test A postemergence. To be noted: Lolium multiflorum, post-emergence, 240 h, 125 g ai/ha, postemergence; visual injury after approximately 10 d; 0 to 100 scale (0 no effect, 100 complete control); read-out: Plant response rating, Ryegrass, Italian. In a few lines:
as §2

Experiment [10] concerns pigweed (Amaranthus retroflexus). Nature of the experiment: Test A postemergence. To be noted: Amaranthus retroflexus, post-emergence, 240 h, 125 g ai/ha, postemergence; visual injury after approximately 10 d; 0 to 100 scale (0 no effect, 100 complete control); read-out: Plant response rating, Pigweed. In a few lines: as §2
The subject of experiment [11] is barnyardgrass (Echinochloa crus-galli). The experiment in a line: Test A postemergence. To be noted: Echinochloa crus-galli, post-emergence, 240 h, 125 g ai/ha, postemergence; visual injury after approximately 10 d; 0 to 100 scale (0 no effect, 100 complete control); read-out: Plant response rating, Barnyardgrass. In a few lines: as §2
Experiment [12] deals with giant foxtail (Setaria faberii). Nature of the experiment: Test A postemergence. To be noted: Setaria faberi, post-emergence, 240 h, 125 g ai/ha, postemergence; visual injury after approximately 10 d; 0 to 100 scale (0 no effect, 100 complete control); read-out: Plant response rating, Foxtail, Giant. In a few lines: as §2

Turning to `Cc1ccc([C@H]2CNC(=O)[C@@H]2C(=O)Nc2cccc(F)c2F)s1` [Compound 729], the pest or weed control at 250 g/ha in the experiment with rice (Oryra sativa) amounted to 0%; in experiment [1], 100%; in experiment [2] it was 60%; in [3], 0%. The pest or weed control at 125 g/ha (in experiment [4]; in the experiment with Kochia (Kochia scoparia); in experiment [5]; in [6]; in experiment [7]; in experiment [8]) was 0% throughout. For the same compound, the pest or weed control at 125 g/ha in experiment [9], in experiment [10], in experiment [11] and in [12] was 0% in each case. The pest or weed control at 500 g/ha (in experiment [4]; with Kochia (Kochia scoparia); in [5]; in experiment [6]; in experiment [7]; in experiment [8]) was 0% throughout.

On to `CS(=O)(=O)c1ccccc1NC(=O)[C@H]1C(=O)NC[C@@H]1c1cccc2c1OC(F)(F)O2` [Compound 753], for which the pest or weed control at 250 g/ha was 0% in the experiment on rice (Oryra sativa), 60% in [1], 0% in experiment [2] and 0% in experiment [3]. The pest or weed control at 125 g/ha in experiment [4] turned out to be 0%; in the experiment with Kochia (Kochia scoparia), 20%; in experiment [5] it was 0%; in experiment [6] it was 70%; in [7], 0%; in [8], 70%. In addition, the pest or weed control at 125 g/ha in experiment [9] was 0%; in experiment [10] it was 0%; in experiment [11] it was 50%; in experiment [12], 0%. Besides, the pest or weed control at 500 g/ha in [4] was 20%; in the experiment on Kochia (Kochia scoparia), 20%; in experiment [5] it was 0%; in [6], 100%; in experiment [7], 0%; in [8] it was 90%.

The values above are taken from patent US12077503B2, “Substituted cyclic amides and their use as herbicides” (FMC CORPORATION, priority 2015, dated 2024).
